Read-outs that look alike come from different tables or passages of the source. Marks after values point to notes of the source that are not given here.
Key:
[1] = tested on: spontaneously hypertensive rat; conditions: in food
Excerpt: Male spontaneously hypertensive rats (=SHR; insulin resistant strain from Charles River; aged 6 months) were equipped with telemetry transmitters for continuous monitoring of blood pressure and heart rate (TA11PA-C40, DSI, USA). Telemetry transmitters for continuous monitoring of blood pressure, heart rate and locomotor activity (TA11PA-C40, Data Sciences, USA) were implanted intraabdominally under inhalative halothane anesthesia. A midline abdominal incision was made, and the abdominal aorta was visualized by removal of retroperitoneal fat and connective tissue. A ligature was placed caudal of the renal arteries, the aorta was punctured with a 22G needle, and the catheter was advanced into the aorta. The entry point was sealed with tissue adhesive (Vetbond™, 3M, USA), the ligature was removed, and the abdominal incision was closed. Measurements of aortic pressure were taken every 5 minutes (=min) for 4 seconds (=s) each at a sampling rate of 500 Hz, and were corrected for the corresponding ambient pressure (ambient pressure monitor, C11PR, Data Sciences, USA).
In a further study performed with a new batch of SHR equipped with telemetry-transmitters as described above, the animals were divided into two groups receiving the HMG CoA reductase inhibitor atorvastatin or a combination of atorvastatin+daglutril. Compounds were mixed into the food, and the daily drug intake was measured by weighing the unconsumed food four times weekly. Intended daily doses were 40 mg/kg/day of atorvastatin and in addition, in the combination group, 100 mg/kg/day of daglutril.
Concentrations of atorvastatin and daglutril in the food were adjusted once per week.
For the statistical analysis, the effects of atorvastatin and atorvastatin+daglutril were calculated by subtracting the baseline value (pre) measured on the last day prior to the start of treatment (day 3) from that measured on day 25 (i.e. on the penultimate day of the treatment period) for each animal. The statistical comparison was done by using a two-sided unpaired Student's t-test.

[2] = tested on: spontaneously hypertensive rat; assay: Telemetric blood pressure and heart rate in SHR; daglutril, simvastatin or simvastatin+daglutril via drinking water; assay type: in vivo; conditions: for DBP, change from baseline / HR, change from baseline / SBP, change from baseline: 24 h mean, day 23 minus baseline (day 3), intended 40 mg/kg/day simvastatin, 100 mg/kg/day daglutril, n = 4-5
Method: In a first experiment, after 3 days of monitoring under baseline (untreated) conditions, animals received daglutril via the drinking water. The intended daily dose was 100 mg/kg/day of daglutril. The concentration in drinking water was adjusted once per week, resulting in an average drug intake of 98 mg/kg/day.
Concentrations of simvastatin and daglutril in the drinking water were adjusted once per week, in order to ensure the intended daily intake of 40 and 100 mg/kg, respectively. The average daily water intake amounted to 33 and 36 ml/kg in the simvastatin and simvastatin+daglutril group, respectively, resulting in the uptake of 36 mg/kg/day of simvastatin in the simvastatin group, and 37 mg/kg/day of simvastatin and 93 mg/kg/day of daglutril in the combination group.
These 24 h means were exported to Excel®, and group mean values of systolic (SBP), diastolic blood pressure (DBP), heart rate (HR), and locomotor activity (ACT) were calculated daily. For the statistical analysis, the effects of simvastatin and simvastatin+daglutril were calculated by subtracting the baseline value (pre) measured on the last day prior to compound application (day 3) from that value measured on day 23 (i.e. on the penultimate day of the treatment period) for each animal. The statistical comparison was done by using univariate ANOVA at an error level of P<0.05.

[3] = tested on: human subjects with congestive heart failure; assay: Single dose study of oral daglutril during 12-hour right heart catheterization; subgroup analysis by concomitant HMG CoA reductase inhibitor; assay type: in vivo; conditions: CHF patients, single oral dose of daglutril (200, 400 or 800 mg groups), with or without concomitant HMG CoA reductase inhibitor; value (SE)
Method: A randomized, placebo-controlled, parallel group, multi-center, single dose study of oral daglutril (vide supra) during 12-hour right heart catheterization in human subjects with congestive heart failure (=CHF) was performed. Each subject received one dose of daglutril or placebo. The study consisted of three visits (or study days when in-subjects were included). Ambulatory subjects were in hospital for two nights and one day. […]
The primary efficacy parameter was the maximum decrease from baseline over 6 hours for SVR and was compared between treatment groups using analysis of covariance, with the baseline value as covariate and center and NYHA classification as factors. […] In addition, the existence of a dose-response relationship for daglutril was evaluated by investigating linear, quadratic and cubic contrasts. The secondary efficacy parameter was the maximum change from baseline over 6 hours for PCWP and was analyzed in the same way as the primary variable. The maximum decrease from baseline over 12 hours, the change from for each individual time point and the adjusted area under the curve (=AUC) over 6 and 12 hours were analyzed for SVR and PCWP, using similar statistical methodology as for the main parameter of interest. […]

[4] = 24 h mean, day 25 minus baseline (day 3), intended 40 mg/kg/day atorvastatin, 100 mg/kg/day daglutril, n = 6

Structure (SMILES) | DBP, change from baseline [1, 4] [mmHg] | HR, change from baseline [1, 4] [min⁻¹] | SBP, change from baseline [1, 4] [mmHg] | Effect on blood pressure (both SBP and DBP) (in words) ([1]; SHR) | DBP, change from baseline [2] | HR, change from baseline [2] [min⁻¹] | SBP, change from baseline [2] | Effect on blood pressure (in words) ([2]; SHR) | Placebo corrected mean change of MPAP (average 0.5-6 hrs) [3]
CC(C)c1c(C(=O)Nc2ccccc2)c(-c2ccccc2)c(-c2ccc(F)cc2)n1CC[C@@H](O)C[C@@H](O)CC(=O)O [Atorvastatin, atorvastatin] | 3.2 | -25.3 | 3.5 | increase in blood pressure |  |  |  |  | 
CCC(C)(C)C(=O)O[C@H]1C[C@@H](C)C=C2C=C[C@H](C)[C@H](CC[C@@H]3C[C@@H](O)CC(=O)O3)[C@H]21 [Simvastatin, simvastatin] |  |  |  |  | 4.7 mmHg | -4.2 | 4.2 mmHg |  | 
CCOC(=O)C(CCc1ccccc1)CC1(C(=O)NC2CCc3ccccc3N(CC(=O)O)C2=O)CCCC1 (stereo not drawn) [daglutril, 2-[1-(1-carboxymethyl-2-oxo-2,3,4,5-tetrahydro-1H-benzo[b]azepin-3-ylcarbamoyl)-cyclopentylmethyl]-4-phenyl-butyric acid ethyl ester] |  |  |  |  | 2.0* mmHg | -6.0 | −0.3* mmHg | no effect on blood pressure | −2.26 (1.05) mm Hg

Reference: US7816347B2, “Pharmaceutical compositions comprising NEP-inhibitors, inhibitors of the endogenous endothelin producing system and HMG CoA reductase inhibitors” (Solvay Pharmaceuticals GmbH, priority 2004, dated 2010)
